Assay results published in patent US10548935B2, “Composition and method for preventing, reducing, alleviating or treating idiopathic vomiting” (Mars, Incorporated, priority 2013, dated 2020).

How the values were obtained:
NK-1 receptor = biological target: T1, NK-1 receptor (Homo sapiens, UniProt P25103); assay: Tango GPCR cell-based assay, TACR1-bla U2OS cells, NK-1 receptor inhibitors; conditions: 1 nM SAR9 Substance P agonist
T1 construct: host or cells: U2OS (Tango TACR1-bla)
Procedure: Various known high through-put screening assays can also be used to determine the inhibitory effects of a material on the NK-1 receptors.
One exemplary assay is the Tango™ G-Protein Coupled Receptors (GPCR) cell-based assays by Invitrogen. First, TACR1-bla U2OS cells (from Invitrogen) are cultured in McCoy's medium. The cultured cells are then plated in DMEM into 96-well plates (15,125 cells/well in 90 uL/well). After 16-24 hours, the cells are treated with test materials or positive control antagonist (which is 100 nM Aprepitant) and then incubated for 30-60 minutes at 37° C. in 5% CO2. Subsequently, the cells are treated with 1 nM SAR9 Substance P agonist and incubated again for 5 hours at 37° C. in 5% CO2. The plates are removed from the incubator and equilibrated at room temperature for 15 minutes. During the equilibration step, the LiveBlazer substrate detection solution (from Invitrogen) is prepared. Six times of substrate mixture is added to each well, followed by incubating the plates in the dark at room temp for 2 hours. The plates are read by the Envision microplate reader in 2 channels using the “Geneblazer 451” protocol, which include a blue channel (Excitement at 405 and Emission at 460) and a green channel (Excitement at 405 and Emission at 535).
FIGS. 45-70 show the NK-1 dosage response curves of compounds described hereinabove with high NK-1 inhibitory effect.

h5HT3A receptor = biological target: T2, h5HT3A receptor (Homo sapiens, UniProt P46098); assay: Assays for screening 5-HT3a receptor inhibitors (FLIPR calcium assay or aequorin-assisted serotonin receptor assay; dosage response curves); type: cell-based
T2 construct: expressed in transfected cells
T2 sequence (P46098 24-478): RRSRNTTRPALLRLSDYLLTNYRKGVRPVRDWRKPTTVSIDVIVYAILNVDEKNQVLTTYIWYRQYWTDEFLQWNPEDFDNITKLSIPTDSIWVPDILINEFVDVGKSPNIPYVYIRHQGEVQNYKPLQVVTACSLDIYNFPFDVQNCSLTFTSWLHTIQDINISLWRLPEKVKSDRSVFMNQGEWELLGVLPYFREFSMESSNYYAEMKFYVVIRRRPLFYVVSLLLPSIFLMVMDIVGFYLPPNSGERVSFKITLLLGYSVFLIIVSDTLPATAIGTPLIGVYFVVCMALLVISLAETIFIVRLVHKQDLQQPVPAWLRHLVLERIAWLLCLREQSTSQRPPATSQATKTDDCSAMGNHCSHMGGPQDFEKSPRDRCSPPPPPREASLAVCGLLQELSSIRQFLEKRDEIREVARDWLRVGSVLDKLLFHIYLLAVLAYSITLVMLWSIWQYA
Source text: Various known high through-put screening assays can be used to determine the inhibitory effects of a material on the 5-HT3a receptors.
Due to activation of 5HT3 receptor following calcium and sodium influx and the subsequent rapid intracellular calcium and sodium increase, a calcium indicator (e.g., Fluo-4 AM) or a sodium dye can therefore be readily used to detect influx Ca^+2 or Na^+ signal using the Flourometric Imaging Plate Reader (FLIPR) assay to identify agonists or antagonists of 5-HT3a receptors.
The 5-HT3a FLIPR assay can specifically be conducted by the following steps. First, […] (human embryonic kidney) cells stably expressed with h5HT3A receptor are grown in 16-18 ml growth medium in a 75 cm^2 flask for 2-3 days at 37° C. in a mammalian cell culture incubator with 5% CO2 and 90% humidity. The growth medium may contain, for example, DMEM/F12 (1:1, Invitrogen 11039) supplemented with 10% FBS (fetal bovine serum), 100 μg/ml Antibiotic/Antimycotic, and 150 ug/ml G418. The cell medium is then transferred to a 50 ml tube, and the cells are washed with 10 ml PBS. Subsequently, 2 ml of 0.05% Trypsin-EDTA is added to detach cells, and the above cell medium is added back to flask to inactivate trypsin. Next, the cells are transferred back to the above 50 ml tube, which is centrifuged at 850 rpm for 3 minutes to remove medium. The cells obtained from centrifugation are then re-suspended with growth medium at 1-1.5 ml per flask cells. One vial of Fluo-4 AM (calcium indicator, 50 ug) is subsequently dissolved with 20 ul of Pluronic F-127, and 10 ul of Fluo-4 AM solution per flask cells is added (1 vial of Fluo-4 AM solution, 20 ul, is good for 2 flask of cells). The cells are then stained with Fluo-4 AM for 30 min at room temperature with gently shaking on a shaker, followed by addition of 45 ml of the assay buffer [HBSS with CaCl2 and MgCl2 (Invitrogen 14025), 20 mM HEPES, pH7.2] to wash cells once. Centrifugation is carried out once more at 850 rpm for 3 minutes to remove assay buffer. The resulting cell pellet is again re-suspended in Assay buffer (per flask cells with 18-20 ml assay buffer). Ninety microliters of cells (50K cells/well) is loaded in the 96-well plates that are pre-loaded with the compounds to be tested (10 ul of 1 mM test materials, the final concentration of the test materials will be 100 uM). The plates are placed at room temperature for 15-30 min in dark and then transferred to FLIPR-384 instrument (Molecular Devices). […] The calcium signal of the test plates is finally recorded by the FLIPR program. The average and standard deviations are calculated using Excel, and the background (buffer) is subtracted. The percentage (%) inhibition is then calculated as
[formula] A test material will be considered as having an inhibitory effect against the 5-HT3a receptor if the percentage inhibition calculated is greater than 40%.
Aequorin is a photo-protein originating from the Jellyfish Aequorea Victoria. It is initially translated as an apo-enzyme requiring the hydrophobic group coelenterazine to initiate the conversion to aequorin. Upon binding of calcium, the coelenterazine is oxidized by aequorin into coelenteramide (BFP) resulting in the emission of blue light and CO2. Therefore, it is particularly useful for visualizing or detecting influx Ca^+2 signal.
After 18-24 h of culture, the cells are detached gently by flushing with their cell culture medium. Washing with an additional 10 mLs of cell culture media will ensure that optimum number of cells is captured. The cells are then centrifuged at 150×g, counted and re-suspended at 1×10^6 cells/mL in BSA medium [DMEM/Ham's F12 (with 15 mM HEPES, L-glutamine, without phenol red) culture medium (Invitrogen, Cat. No. 11039-021)+10% protease-free BSA (Sigma Aldrich, Cat. No. A9205) in H2O with a final BSA concentration of 0.1%] in a Falcon tube. Coelenterazine is added at a final concentration of 5 μM in assay medium.

T1 sequence (P25103 whole entry): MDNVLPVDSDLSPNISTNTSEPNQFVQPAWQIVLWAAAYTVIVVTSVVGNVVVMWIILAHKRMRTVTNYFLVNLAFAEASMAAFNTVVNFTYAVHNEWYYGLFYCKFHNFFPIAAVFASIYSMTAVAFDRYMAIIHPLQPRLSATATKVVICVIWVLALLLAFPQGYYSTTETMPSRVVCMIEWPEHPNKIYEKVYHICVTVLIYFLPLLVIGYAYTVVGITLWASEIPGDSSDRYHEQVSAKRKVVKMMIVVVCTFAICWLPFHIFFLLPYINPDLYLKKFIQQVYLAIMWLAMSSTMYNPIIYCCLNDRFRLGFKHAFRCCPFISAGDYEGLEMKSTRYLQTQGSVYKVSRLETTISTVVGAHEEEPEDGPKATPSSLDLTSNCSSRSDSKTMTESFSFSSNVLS

Which results are given for `CCCCCCCCCCCCCCCC(=O)OC(CC(=O)O)C[N+](C)(C)C.[Cl-]` (racemic) [DL-palmitoylcarnitine chloride]?
cell toxicity (Cell toxicity): little or no; NK-1 receptor inhibitory effect (NK-1 receptor): surprisingly high; 5-HT3a receptor inhibitory effect (h5HT3A receptor): surprisingly high

Which cell toxicity (Cell toxicity) does the source give for `O=C(/C=C/c1ccc(O)cc1)c1ccccc1` [4-Hydroxychalcone] here?
Its cell toxicity is “little or no”.

And the “NK-1 receptor inhibitory effect” value (NK-1 receptor)?
Its value is “surprisingly high”.

And the “5-HT3a receptor inhibitory effect” value (h5HT3A receptor)?
The value was “surprisingly high”.

With `O=c1c(O)c(-c2ccccc2)oc2ccc(O)cc12` [3,6-Dihydroxyflavone] as the compound, how does the cell toxicity (Cell toxicity) read?
The cell toxicity was “little or no”.

What about the “NK-1 receptor inhibitory effect” value (NK-1 receptor) of the same compound?
The value was “surprisingly high”.

What about the “5-HT3a receptor inhibitory effect” value (h5HT3A receptor) of the same compound?
The value was “surprisingly high”.

Which cell toxicity (Cell toxicity) does the source give for `CC1(C)[C@@H](O)CC[C@]2(C)[C@H]3C(=O)C=C4[C@@H]5C[C@@](C)(C(=O)O)CC[C@]5(C)CC[C@@]4(C)[C@]3(C)CC[C@@H]12` [18-Beta-glycyrrhetic acid] here?
Its cell toxicity is “little or no”.

And the “NK-1 receptor inhibitory effect” value (NK-1 receptor)?
Its value is “surprisingly high”.

What about the “5-HT3a receptor inhibitory effect” value (h5HT3A receptor) of the same compound?
Its value is “surprisingly high”.

For `c1ccc2c(Cc3c[nH]c4ccccc34)c[nH]c2c1` [3,3′-diindolylmethane], which cell toxicity (Cell toxicity) is on record?
Its cell toxicity is “little or no”.

And the “NK-1 receptor inhibitory effect” value (NK-1 receptor)?
Its value is “surprisingly high”.

Which cell toxicity (Cell toxicity) does the source give for `O=C(/C=C/c1ccccc1)c1ccccc1` [Chalcone] here?
Its cell toxicity is “little or no”.

And the “NK-1 receptor inhibitory effect” value (NK-1 receptor)?
The value was “surprisingly high”.

Which results are given for `Oc1ccc(C=Cc2cc(O)cc(O)c2)cc1` [Resveratrol]?
NK-1 receptor inhibitory effect (NK-1 receptor): surprisingly high; 5-HT3a receptor inhibitory effect (h5HT3A receptor): surprisingly high

With `COc1ccc(/C=C/C=O)cc1` [Trans-4-methoxycinnamaldehyde] as the compound, how does the cell toxicity (Cell toxicity) read?
Its cell toxicity is “little or no”.

And the “NK-1 receptor inhibitory effect” value (NK-1 receptor)?
Its value is “surprisingly high”.

Which cell toxicity (Cell toxicity) does the source give for `C[C@H]1[C@H](C)CC[C@]2(C(=O)O)CC[C@]3(C)C(=CC[C@@H]4[C@@]5(C)C[C@@H](O)[C@H](O)[C@@](C)(CO)[C@@H]5CC[C@]43C)[C@H]12` [Asiatic acid] here?
The cell toxicity was “little or no”.

What about the “NK-1 receptor inhibitory effect” value (NK-1 receptor) of the same compound?
The value was “surprisingly high”.

What about the “5-HT3a receptor inhibitory effect” value (h5HT3A receptor) of the same compound?
Its value is “surprisingly high”.

With `CCCC/C=C/C=C/C=O` [Trans,trans-2,4-nonadienal] as the compound, how does the cell toxicity (Cell toxicity) read?
Its cell toxicity is “little or no”.

And the “NK-1 receptor inhibitory effect” value (NK-1 receptor)?
The value was “surprisingly high”.

Which cell toxicity (Cell toxicity) does the source give for `CC1=CC(=O)c2ccccc2C1=O` [Menadione] here?
Its cell toxicity is “little or no”.

What about the “NK-1 receptor inhibitory effect” value (NK-1 receptor) of the same compound?
Its value is “surprisingly high”.

With `O=c1cc(-c2ccc(O)c(O)c2)oc2cc(O)cc(O)c12` [Luteolin] as the compound, how does the cell toxicity (Cell toxicity) read?
Its cell toxicity is “little or no”.

What about the “NK-1 receptor inhibitory effect” value (NK-1 receptor) of the same compound?
The value was “surprisingly high”.

What about the “5-HT3a receptor inhibitory effect” value (h5HT3A receptor) of the same compound?
Its value is “surprisingly high”.

What does the source list for `O=c1cc(-c2ccc(O)cc2)oc2cc(O)cc(O)c12` [Apigenin]?
cell toxicity (Cell toxicity): little or no; NK-1 receptor inhibitory effect (NK-1 receptor): surprisingly high

With `CC/C=C\CC/C=C/CO` [Trans-2,cis-6-nonadienol] as the compound, how does the cell toxicity (Cell toxicity) read?
The cell toxicity was “little or no”.

What about the “NK-1 receptor inhibitory effect” value (NK-1 receptor) of the same compound?
The value was “surprisingly high”.

For `COC1=C(OC)C(=O)C(C)=CC1=O` [Ubiquinone-O], which cell toxicity (Cell toxicity) is on record?
The cell toxicity was “little or no”.

And the “NK-1 receptor inhibitory effect” value (NK-1 receptor)?
Its value is “surprisingly high”.

And the “5-HT3a receptor inhibitory effect” value (h5HT3A receptor)?
Its value is “surprisingly high”.

Which results are given for `COc1cc(/C=C/C(=O)CC(=O)/C=C/c2ccc(O)c(OC)c2)ccc1O` [Curcumin]?
NK-1 receptor inhibitory effect (NK-1 receptor): surprisingly high; 5-HT3a receptor inhibitory effect (h5HT3A receptor): surprisingly high
